Read-outs that look alike come from different tables or passages of the source.
Assays:
in vitro = conditions: BALB/c, mouse
[1] = system: Leishmania (L.) infantum promastigotes (strain MHOM/MA/67/ITMAP-263); experiment: organism not typed; format: cell-based; conditions: read-out: Anti-Promastigote Activity (IC50)

Clc1ccc2c(NCCCCNc3c4c(nc5cc(Cl)ccc35)CCCC4)c3c(nc2c1)CCCC3 [Compound 10.j]
EC50 (in vitro): 9.02 ± 1.79 µM
IC50 [1]: 8.56 ± 1.56 µM

O=CNCCNc1c2c(nc3ccccc13)CCCC2 [Compound 8.c]
cytotoxicity at 10 µM (in vitro): 99.5%
IC50 ([1]; 24 h): 1.69 ± 0.22 µM

CC(=O)NCCCCCCCCCCNc1c2c(nc3ccccc13)CCCC2 [Compound 7.c]
IC50 ([1]; 24 h): > 100 µM

O=CNCCCCCCNc1c2c(nc3ccccc13)CCCC2 [Compound 8.e]
cytotoxicity at 10 µM (in vitro): 94.7%
IC50 ([1]; 24 h): 3.23 ± 0.41 µM

CC(=O)NCCCCCCCCNc1c2c(nc3cc(Cl)ccc13)CCCC2 [Compound 7.e]
IC50 ([1]; 24 h): > 100 µM

O=CNNc1c2c(nc3ccccc13)CCCC2 [Compound 8.a]
IC50 ([1]; 24 h): > 50 µM

CC(=O)NCCCCCCNc1c2c(nc3cc(Cl)ccc13)CCCC2 [Compound 7.d]
IC50 [1]: > 100 µM

CC(=O)NCCCCCCNc1c2c(nc3ccccc13)CCCC2 [Compound 7.a]
IC50 [1]: > 100 µM

Clc1ccc2c(NCCCCCCCCCCCCNc3c4c(nc5cc(Cl)ccc35)CCCC4)c3c(nc2c1)CCCC3 [Compound 10.n]
cytotoxicity at 50 µM (in vitro): 92.5%
IC50 [1]: 3.5 ± 0.63 µM

CC(=O)NCCCCCCCCCCNc1c2c(nc3cc(Cl)ccc13)CCCC2 [Compound 7.f]
cytotoxicity at 10 µM (in vitro): 77.5%
IC50 ([1]; 24 h): 11.2 ± 0.66 µM

Clc1ccc2c(Cl)c3c(nc2c1)CCCC3 [Compound 5.b]
IC50 ([1]; 24 h): > 100 µM

Clc1ccc2c(NCCCCCCCCCCNc3c4c(nc5cc(Cl)ccc35)CCCC4)c3c(nc2c1)CCCC3 [Compound 10.m]
cytotoxicity at 10 µM (in vitro): 99%
IC50 [1]: 1.92 ± 0.21 µM

Clc1ccc2c(NCCNc3c4c(nc5cc(Cl)ccc35)CCCC4)c3c(nc2c1)CCCC3 [Compound 10.h]
melting point: 89 to 95 °C
IC50 [1]: 9.5 ± 0.51 µM

C[C@@H]1[C@H](O)[C@@H](C)/C=C/C=C/C=C/C=C/C=C/C=C/C=C/[C@H](O[C@@H]2O[C@H](C)[C@@H](O)[C@H](N)[C@@H]2O)C[C@@H]2O[C@](O)(C[C@@H](O)C[C@@H](O)[C@H](O)CC[C@@H](O)C[C@@H](O)CC(=O)O[C@H]1C)C[C@H](O)[C@H]2C(=O)O [Amphotericin B, reference compound]
EC50 (in vitro): 3.1 ± 0.6 µM
IC50 ([1]; 24 h): 0.17 ± 0.09 µM

Clc1ccc2c(NCCCCCNc3c4c(nc5cc(Cl)ccc35)CCCC4)c3c(nc2c1)CCCC3 [Compound 10.k]
cytotoxicity at 10 µM (in vitro): 87.5%
IC50 [1]: 5.26 ± 4.89 µM

Clc1c2c(nc3ccccc13)CCCC2 [Compound 5.a]
IC50 ([1]; 24 h): > 100 µM

CC(=O)NCCCCCCCCNc1c2c(nc3ccccc13)CCCC2 [Compound 7.b]
IC50 [1]: > 100 µM

c1ccc2c(NCCCCCCCCNc3c4c(nc5ccccc35)CCCC4)c3c(nc2c1)CCCC3 [Compound 10.e]
cytotoxicity at 10 µM (in vitro): 99.5%
IC50 ([1]; 24 h): 2.99 ± 0.98 µM

c1ccc2c(NCCCCCCCCCCCCNc3c4c(nc5ccccc35)CCCC4)c3c(nc2c1)CCCC3 [Compound 10.g]
cytotoxicity at 10 µM (in vitro): 99.7%
IC50 ([1]; 24 h): 0.37 ± 0.06 µM

O=CNCCCCCCCCNc1c2c(nc3ccccc13)CCCC2 [Compound 8.f]
cytotoxicity at 10 µM (in vitro): 91.2%
IC50 ([1]; 24 h): 1.55 ± 0.38 µM

O=C1C=C(NCCCNc2c3c(nc4cc(Cl)ccc24)CCCC3)C(=O)C=C1NCCCNc1c2c(nc3cc(Cl)ccc13)CCCC2 [Compound 9.c]
IC50 [1]: > 50 µM

c1ccc2c(NCCCCCNc3c4c(nc5ccccc35)CCCC4)c3c(nc2c1)CCCC3 [Compound 10.d]
IC50 ([1]; 24 h): > 50 µM

O=CNCCCNc1c2c(nc3ccccc13)CCCC2 [Compound 8.d]
cytotoxicity at 50 µM (in vitro): 100%
IC50 ([1]; 24 h): 14.2 ± 0.98 µM

Clc1ccc2c(NCCCCCCCCCCCCNc3ccnc4cc(Cl)ccc34)ccnc2c1 [Compound 12, N^1,N^12-bis(7-chloroquinolin-4-yl)dodecane-1,12-diamine]
EC50 (in vitro): 11.7 ± 3.96 µM
IC50 ([1]; 24 h): 0.6 ± 0.11 µM

O=C1C(Cl)=C(NCCCNc2c3c(nc4cc(Cl)ccc24)CCCC3)C(=O)C(Cl)=C1NCCCNc1c2c(nc3cc(Cl)ccc13)CCCC2 [Compound 9.d]
IC50 [1]: 2.17 ± 0.45 µM

O=CNCNc1c2c(nc3ccccc13)CCCC2 [Compound 8.b]
cytotoxicity at 10 µM (in vitro): 88.1%
IC50 ([1]; 24 h): 5.64 ± 0.65 µM

O=C1C(Cl)=C(NCCCNc2c3c(nc4ccccc24)CCCC3)C(=O)C(Cl)=C1NCCCNc1c2c(nc3ccccc13)CCCC2 [Compound 9.b]
IC50 [1]: > 100 µM

c1ccc2c(NCCCCCCCCCCNc3c4c(nc5ccccc35)CCCC4)c3c(nc2c1)CCCC3 [Compound 10.f]
cytotoxicity at 10 µM (in vitro): 99.5%
IC50 ([1]; 24 h): 0.94 ± 0.33 µM

Clc1ccc2c(NCCCNc3c4c(nc5cc(Cl)ccc35)CCCC4)c3c(nc2c1)CCCC3 [Compound 10.i]
cytotoxicity at 10 µM (in vitro): 90.4%
IC50 [1]: 8.58 ± 0.47 µM

From publication PMC9965875 (Pharmaceutics, 2023)
